Results taken from patent EP0353821B1, “Antipsychotic 3-piperazinyl-benzazole derivatives” (JANSSEN PHARMACEUTICA N.V., priority 1988, dated 1990).
Like-named read-outs stand apart in the source and are kept apart here.

Key:
[1] = system: apomorphine-induced phenomena: agitation and stereotypic chewing; assay: Combined apomorphine-, tryptamine- and norepinephrine test in rats: apomorphine (APO) part; assay type: in vivo, adult male Wistar rats; settings: Rattus norvegicus, read-out: Combined test in rats, ED₅₀ in mg/kg (APO)
Procedure: (§1) The combined apomorphine (APO)-, tryptamine (TRY)- and norepinephrine (NOR) test in rats.
(§2) The experimental animals used in this test were adult male Wistar rats (weight 240 ± 10g). After an overnight fast the animals were treated subcutaneously or orally with an aqueous solution of the compound under investigation (1ml/100g body weight) (time = zero) and put in isolated observation cages. […] At the end of this 1 hour period (time = 90 minutes) the same animals were injected intravenously with 40 mg/kg of tryptamine (TRY) and the presence of the typical tryptamine-induced bilateral tonic seizures and hyperaemia of the ears was noted. Two hours after pretreatment (time = 120 minutes) finally, the same animals were challenged with 1.25 mg/kg intravenously of norephinephrine (NOR) and possible mortality was looked for up to 60 minutes later.
(§3) The table 3 gives the ED₅₀-values of a number of the compounds under consideration. As used herein, the ED₅₀-value represents the dose which protects 50% of the animals from apomorphine-, tryptamine- or norepinephrine-induced phenomena.

[2] = system: tryptamine-induced bilateral tonic seizures and hyperaemia of the ears; assay: Combined apomorphine-, tryptamine- and norepinephrine test in rats: tryptamine (TRY) part; assay type: in vivo, adult male Wistar rats; settings: Rattus norvegicus, 1.5 h, compound subcutaneously or orally, 40 mg/kg tryptamine i.v. at 90 minutes, dose which protects 50% of the animals, read-out: Combined test in rats
Procedure: as §1, §2, §3

[3] = system: norepinephrine-induced phenomena (mortality); assay: Combined apomorphine-, tryptamine- and norepinephrine test in rats: norepinephrine (NOR) part; assay type: in vivo, adult male Wistar rats; settings: Rattus norvegicus; compound subcutaneously or orally; 1.25 mg/kg norepinephrine i.v. at 120 minutes; mortality up to 60 minutes later; dose which protects 50% of the animals; read-out: Combined test in rats; ED₅₀ in mg/kg (NOR)
Procedure: as §1, §2, §3

apomorphine (emesis) = assay: The apomorphine test in dogs (APO-dog); assay type: in vivo, beagle dogs; settings: Canis lupus familiaris, 1 h; compound subcutaneously or orally; 0.31 mg/kg (s.c.) apomorphine one hour thereafter; dose which protects 50% of the animals from emesis; read-out: (APO)-dog test, ED₅₀ in mg/kg
Procedure: The apomorphine test in dogs (APO-dog).
The method used is described by P.A.J. Janssen and C.J.E. Niemegeers in Arzneim.-Forsch. (Drug Res.), 9, 765-767 (1959). The compounds listed in table 3 were administered subcutaneously or orally to beagle dogs at different doses and the animals were challenged one hour thereafter with a standard dose of 0.31 mg/kg (s.c.) of apomorphine.
The table 3 gives the ED₅₀-values of a number of the compounds under consideration. As used herein, the ED₅₀ value represents the dose which protects 50% of the animals from emesis.

[4] = compound subcutaneously or orally, 1.25 mg/kg apomorphine i.v. at 30 minutes, observed 1 hour, dose which protects 50% of the animals
[5] = bilateral tonic seizures, ED₅₀ in mg/kg (TRY)-convulsions
[6] = hyperaemia of the ears, ED₅₀ in mg/kg (TRY)-hyperaemia

SMILES	ED50 [1, 4] [mg/kg]	ED50 [2, 5] [mg/kg]	ED50 [2, 6] [mg/kg]	ED50 [3] [mg/kg]	ED50 (apomorphine (emesis)) [mg/kg]	ED50 [1] [mg/kg]
Cc1nc2n(c(=O)c1CCN1CCN(c3noc4cc(F)ccc34)CC1)CCS2 [Compound 3, 6-[2-[4-(6-fluoro-1,2-benzisoxazol-3-yl)-1-piperazinyl]ethyl]-2,3-dihydro-7-methyl-5H-thiazolo[3,2-a]pyrimidin-5-one]	0.02	0.005	0.00125	0.08	0.07	–
Cc1nc2ccccn2c(=O)c1CCN1CCN(c2nsc3ccccc23)CC1 [Compound 11]	–	0.08	0.00031	1.25	0.45	0.08
Cc1nc2ccccn2c(=O)c1CCN1CCN(c2noc3cc(F)ccc23)CC1 [Compound 15]	0.04	0.08	0.005	0.31	0.015	–
Cc1nc2ccccn2c(=O)c1CCN1CCN(c2n[nH]c3cc(F)ccc23)CC1 [Compound 16]	0.08	0.08	0.005	–	< 0.01	–
Cc1nc2n(c(=O)c1CCN1CCN(c3noc4cc(F)ccc34)CC1)CCCC2 [Compound 20]	0.08	0.08	0.005	–	0.015	–
Cc1nc2n(c(=O)c1CCN1CCN(c3noc4cc(F)ccc34)CC1)CCCS2 [Compound 25]	0.08	0.08	≤ 0.01	0.31	0.06	–
Cc1nc2n(c(=O)c1CCN1CCN(c3nsc4ccccc34)CC1)CCS2 [Compound 26]	0.08	0.02	0.00125	5	0.03	–
Cc1nc2n(c(=O)c1CCN1CCN(c3noc4ccccc34)CC1)CCS2 [Compound 27]	0.03	0.03	0.00125	0.31	0.06	–
Cc1nc2sccn2c(=O)c1CCN1CCN(c2noc3ccccc23)CC1 [Compound 31]	–	0.02	0.00031	1.25	0.03	0.03
Cc1nc2sccn2c(=O)c1CCN1CCN(c2noc3cc(F)ccc23)CC1 [Compound 34]	0.02	0.08	< 0.01	0.31	0.015	–
Cc1nc2scc(C)n2c(=O)c1CCN1CCN(c2noc3cc(F)ccc23)CC1 [Compound 39]	0.08	0.04	< 0.04	0.31	0.03	–
Cc1nc2scc(C)n2c(=O)c1CCN1CCN(c2n[nH]c3cc(F)ccc23)CC1 [Compound 40]	0.02	0.02	0.00031	0.08	0.0025	–
Cc1nc2ccccn2c(=O)c1CCN1CCN(c2n[nH]c3ccccc23)CC1 [Compound 41]	–	0.04	0.005	1.25	0.03	0.08
Cc1nc2c(C)cccn2c(=O)c1CCN1CCN(c2noc3ccccc23)CC1 [Compound 45]	–	0.08	0.02	1.25	> 0.01	0.04
Cc1nc2c(C)cccn2c(=O)c1CCN1CCN(c2n[nH]c3cc(F)ccc23)CC1 [Compound 47]	0.04	0.08	0.000125	0.08	0.001	–
Cc1nc2n(c(=O)c1CCN1CCN(c3nsc4ccccc34)CC1)CCCC2C (stereo not drawn) [Compound 55]	0.04	0.04	0.0025	10	> 0.016	–
Cc1nc2n(c(=O)c1CCN1CCN(c3n[nH]c4cc(F)ccc34)CC1)CCCC2C (stereo not drawn) [Compound 56]	0.08	0.08	0.005	0.16	0.00045	–
Cc1nc2sccn2c(=O)c1CCN1CCN(c2n[nH]c3cc(F)ccc23)CC1 [Compound 63]	0.02	0.02	0.00125	0.16	0.001	–
Cc1nc2sccn2c(=O)c1CCN1CCN(c2n[nH]c3ccccc23)CC1 [Compound 64]	–	0.08	0.005	1.25	–	0.08
Cc1nc2scc(C)n2c(=O)c1CCN1CCN(c2n[nH]c3ccccc23)CC1 [Compound 65]	–	0.04	0.00063	1.25	–	0.08
